# Reference: BindingDB's records for doi:10.1016/s0960-894x(97)10151-2 (Merck, 1999)
# Molecular target: Endothelin receptor type B (Sus scrofa)
# Assay: Inhibition of [125I]ET1 binding to porcine kidney inner medulla membrane Endothelin B receptor
row,Structure (SMILES),IC50 [nM]
1,"CCCOc1ccc2c(c1)c(-c1ccc(OC)cc1)c(C(=O)O)n2Cc1ccc2nsnc2c1 [1-Benzo[1,2,5]thiadiazol-5-ylmethyl-3-(4-methoxy-phenyl)-5-propoxy-1H-indole-2-carboxylic acid]",1200
2,"COc1ccc(-c2c(C(=O)O)c(=O)n(Cc3ccc4nsnc4c3)c3c2oc2ccccc23)cc1 [1-Benzo[1,2,5]thiadiazol-5-ylmethyl-4-(4-methoxy-phenyl)-2-oxo-1,2-dihydro-benzo[4,5]furo[3,2-b]pyridine-3-carboxylic acid]",300
3,"COc1ccc(-c2c(C(=O)O)c(=O)n(Cc3ccc4c(c3)OCO4)c3c2oc2ccccc23)cc1 [1-Benzo[1,3]dioxol-5-ylmethyl-4-(4-methoxy-phenyl)-2-oxo-1,2-dihydro-benzo[4,5]furo[3,2-b]pyridine-3-carboxylic acid]",440
4,"COc1ccc(C2(O)OC(=O)C(c3ccc4nsnc4c3)=C2Cc2cc(OC)c(OC)c(OC)c2)cc1 (configuration not stated) [3-Benzo[1,2,5]thiadiazol-5-yl-5-hydroxy-5-(4-methoxy-phenyl)-4-(3,4,5-trimethoxy-benzyl)-5H-furan-2-one]",340
5,"CCCOc1ccc2c(c1)c(-c1ccc3c(c1)OCO3)c(C(=O)O)n2Cc1ccc2nonc2c1 [3-Benzo[1,3]dioxol-5-yl-1-benzo[1,2,5]oxadiazol-5-ylmethyl-5-propoxy-1H-indole-2-carboxylic acid]",5300
6,"CCCOc1ccc2c(c1)c(-c1ccc3c(c1)OCO3)c(C(=O)O)n2Cc1ccc2c(c1)OCO2 [3-Benzo[1,3]dioxol-5-yl-1-benzo[1,3]dioxol-5-ylmethyl-5-propoxy-1H-indole-2-carboxylic acid]",1600
7,"CN(C)c1cccc2c(S(=O)(=O)Nc3ccc4c(c3)OCO4)cccc12 [5-Dimethylamino-naphthalene-1-sulfonic acid benzo[1,3]dioxol-5-ylamide]",> 10000
